In patent US20090170813A1, “Hypophosphorous Acid Derivatives and their Therapeutical Applications” (priority 2005, published 2009):
Like-named read-outs stand apart in the source and are kept apart here.

Columns and labels:
rat mGlu4 = target: T1, rat mGlu4 (Rattus norvegicus, UniProt P31423); test: Agonist activity, [3H]phosphatidylinositol accumulation in HEK293 cells transfected with rat mGlu4 and Gqi9; format: cell-based
T1 construct: expressed in transfected cells; host or cells: HEK293
Method: Agonist activity of the compounds was tested on HEK293 cells transiently transfected with rat mGlu4 expressing plasmid pRKG4 and chimeric G-protein Gqi9 by electroporation, as described by Gomeza, J. et al, Mol. Pharmacol; 1996, 50, 923-930.
Cells were plated in 96-well culture plates and labeled overnight with [^3H]myoinositol. The day after, cells were washed three times with Krebs buffer, incubated for 10 min with LiCl 5 mM, and then incubated for 30 min in the absence (basal) or in the presence of the indicated compounds at 1 nM up to 1000 μM. The total amount of [^3H]phosphatidylinositol accumulated in the cells was determined after Dowex purification as previously by Goudet C, et al, Prod. Natl. Acad. Sci. USA 2004, 101, 378-383.
The response dosis curves were adjusted by using equatrier y=[(Ymax−ymin)/(1+(x/EC50)^n)]+ymin where EC50 is the concentration necessary for obtaining half of the maximal effect and n is Hill coefficient.

mGlu8 = mGlu8 (Homo sapiens, UniProt O00222); test: Agonist activity on group III receptor mGlu8
Sequence of mGlu8 (O00222 34-908): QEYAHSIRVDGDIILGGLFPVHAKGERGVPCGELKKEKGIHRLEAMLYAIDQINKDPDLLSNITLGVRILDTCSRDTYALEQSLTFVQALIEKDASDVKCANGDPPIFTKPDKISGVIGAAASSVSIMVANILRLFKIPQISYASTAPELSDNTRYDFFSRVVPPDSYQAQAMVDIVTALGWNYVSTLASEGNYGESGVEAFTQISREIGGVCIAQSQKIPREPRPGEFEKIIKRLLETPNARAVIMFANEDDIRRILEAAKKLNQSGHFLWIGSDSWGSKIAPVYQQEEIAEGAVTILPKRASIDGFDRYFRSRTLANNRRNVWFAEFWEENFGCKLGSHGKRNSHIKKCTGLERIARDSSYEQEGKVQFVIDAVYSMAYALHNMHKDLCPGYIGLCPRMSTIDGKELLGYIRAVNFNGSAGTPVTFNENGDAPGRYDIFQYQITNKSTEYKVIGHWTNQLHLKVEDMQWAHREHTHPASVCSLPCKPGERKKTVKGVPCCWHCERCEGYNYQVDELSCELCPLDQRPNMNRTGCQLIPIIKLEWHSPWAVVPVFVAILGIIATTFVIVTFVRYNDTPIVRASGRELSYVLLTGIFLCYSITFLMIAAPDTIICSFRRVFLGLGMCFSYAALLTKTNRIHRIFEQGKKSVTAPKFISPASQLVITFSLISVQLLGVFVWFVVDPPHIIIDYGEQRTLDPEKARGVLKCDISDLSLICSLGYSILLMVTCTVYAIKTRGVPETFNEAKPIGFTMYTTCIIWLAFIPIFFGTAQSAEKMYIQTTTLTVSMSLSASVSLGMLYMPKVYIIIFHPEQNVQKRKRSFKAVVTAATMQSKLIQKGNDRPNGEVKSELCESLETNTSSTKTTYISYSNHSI

mGlu7 = mGlu7 (Homo sapiens, UniProt Q14831); test: Agonist activity on group III receptor mGlu7
Sequence of mGlu7 (Q14831 35-915): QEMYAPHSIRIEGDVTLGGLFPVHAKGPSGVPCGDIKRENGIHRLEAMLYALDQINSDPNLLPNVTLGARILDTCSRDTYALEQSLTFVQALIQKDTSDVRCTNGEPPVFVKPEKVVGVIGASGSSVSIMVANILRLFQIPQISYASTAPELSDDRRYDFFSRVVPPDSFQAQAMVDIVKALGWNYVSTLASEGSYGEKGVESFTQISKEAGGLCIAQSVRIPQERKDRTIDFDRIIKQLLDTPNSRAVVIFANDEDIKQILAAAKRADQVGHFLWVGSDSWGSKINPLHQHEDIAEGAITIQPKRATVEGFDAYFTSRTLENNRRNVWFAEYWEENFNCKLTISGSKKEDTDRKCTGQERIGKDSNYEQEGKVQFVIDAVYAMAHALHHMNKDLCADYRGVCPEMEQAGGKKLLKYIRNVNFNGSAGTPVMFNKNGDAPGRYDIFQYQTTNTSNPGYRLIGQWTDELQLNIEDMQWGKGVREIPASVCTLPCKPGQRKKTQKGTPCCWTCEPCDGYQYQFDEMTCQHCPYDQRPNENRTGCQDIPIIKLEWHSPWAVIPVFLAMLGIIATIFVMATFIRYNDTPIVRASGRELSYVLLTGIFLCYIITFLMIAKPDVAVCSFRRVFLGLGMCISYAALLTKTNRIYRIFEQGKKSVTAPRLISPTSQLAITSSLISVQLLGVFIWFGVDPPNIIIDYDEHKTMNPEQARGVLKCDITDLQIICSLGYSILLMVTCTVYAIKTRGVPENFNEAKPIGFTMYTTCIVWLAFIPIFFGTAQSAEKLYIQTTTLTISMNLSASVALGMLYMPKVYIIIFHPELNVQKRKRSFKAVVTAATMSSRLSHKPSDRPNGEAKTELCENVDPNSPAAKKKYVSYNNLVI

mGlu4R [1] = target: T2, mGlu4R (Homo sapiens, UniProt Q14833); details: background statement; read-out: EC50 as mGlu4R agonist; cited from earlier work
T2 sequence (Q14833 33-912): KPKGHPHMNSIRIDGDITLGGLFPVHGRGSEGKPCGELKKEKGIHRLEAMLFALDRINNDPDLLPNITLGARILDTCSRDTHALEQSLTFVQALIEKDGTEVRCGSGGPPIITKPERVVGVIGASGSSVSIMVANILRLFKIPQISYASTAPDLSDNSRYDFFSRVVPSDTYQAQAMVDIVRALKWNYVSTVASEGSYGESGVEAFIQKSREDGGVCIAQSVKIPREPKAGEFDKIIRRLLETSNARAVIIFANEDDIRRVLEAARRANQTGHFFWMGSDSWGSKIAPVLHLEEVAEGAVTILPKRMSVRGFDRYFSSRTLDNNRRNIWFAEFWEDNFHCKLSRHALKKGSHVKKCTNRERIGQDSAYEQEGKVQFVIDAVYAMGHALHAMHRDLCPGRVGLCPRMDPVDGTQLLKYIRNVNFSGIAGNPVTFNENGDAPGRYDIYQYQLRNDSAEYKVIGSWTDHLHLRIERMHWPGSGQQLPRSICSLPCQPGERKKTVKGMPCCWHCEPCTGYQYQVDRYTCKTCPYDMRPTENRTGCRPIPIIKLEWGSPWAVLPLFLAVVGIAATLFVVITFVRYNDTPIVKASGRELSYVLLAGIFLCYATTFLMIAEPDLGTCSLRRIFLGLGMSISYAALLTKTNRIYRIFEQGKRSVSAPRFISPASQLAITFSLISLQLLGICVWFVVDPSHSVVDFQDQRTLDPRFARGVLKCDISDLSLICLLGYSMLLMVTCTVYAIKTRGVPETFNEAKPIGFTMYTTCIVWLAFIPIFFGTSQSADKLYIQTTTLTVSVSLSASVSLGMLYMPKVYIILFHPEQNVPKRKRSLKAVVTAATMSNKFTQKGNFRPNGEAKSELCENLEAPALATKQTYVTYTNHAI

mGlu4R [2] = target: T2, mGlu4R; details: background statement; read-out: IC50 as competitive antagonist; cited from earlier work
[3] = Table 1, mean ± spread (n), read-out: EC50 mGlu4
[4] = Table 2, n in brackets, read-out: mGlu4 EC50 μM (n)

T1 sequence (P31423 33-912): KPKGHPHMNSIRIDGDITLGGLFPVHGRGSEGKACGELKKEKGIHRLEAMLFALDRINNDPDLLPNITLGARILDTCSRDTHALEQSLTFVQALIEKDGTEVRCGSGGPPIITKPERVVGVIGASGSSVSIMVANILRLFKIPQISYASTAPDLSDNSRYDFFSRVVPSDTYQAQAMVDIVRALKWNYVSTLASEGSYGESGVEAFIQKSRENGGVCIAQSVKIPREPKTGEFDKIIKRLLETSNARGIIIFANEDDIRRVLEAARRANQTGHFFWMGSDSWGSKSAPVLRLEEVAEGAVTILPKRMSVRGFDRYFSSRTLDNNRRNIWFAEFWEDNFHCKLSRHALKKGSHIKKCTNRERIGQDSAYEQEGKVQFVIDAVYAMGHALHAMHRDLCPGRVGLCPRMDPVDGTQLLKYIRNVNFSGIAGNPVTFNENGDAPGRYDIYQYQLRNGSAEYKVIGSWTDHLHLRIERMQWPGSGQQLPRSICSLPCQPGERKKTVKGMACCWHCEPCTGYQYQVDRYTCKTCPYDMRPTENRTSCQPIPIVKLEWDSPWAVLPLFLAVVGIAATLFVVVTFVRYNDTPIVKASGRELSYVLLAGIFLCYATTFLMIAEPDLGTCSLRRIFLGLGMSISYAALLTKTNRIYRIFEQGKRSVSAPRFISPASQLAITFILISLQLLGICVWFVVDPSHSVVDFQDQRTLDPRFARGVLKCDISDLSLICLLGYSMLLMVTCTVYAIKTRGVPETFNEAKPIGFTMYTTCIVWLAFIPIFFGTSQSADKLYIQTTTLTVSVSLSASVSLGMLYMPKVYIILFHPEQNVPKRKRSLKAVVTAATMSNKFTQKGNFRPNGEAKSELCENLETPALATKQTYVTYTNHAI

Which EC50 (rat mGlu4; [3]) does the source give for `NC(CCP(=O)(O)CCC(=O)O)C(=O)O` (racemic) [Compound 4, 3-[((3-Amino-3-carboxy)propyl)(hydroxy)phosphinyl]propanoic Acid] here?
Its EC50 is 6.6 ± 2.8 µM.

What about the EC50 (rat mGlu4; [4]) of the same compound?
The EC50 was 7.1 µM.

What about the EC50 (mGlu8) of the same compound?
Its EC50 is 24.2 ± 9 µM.

What about the EC50 (mGlu7) of the same compound?
The EC50 was greater than 1000 µM.

Which results are given for `N[C@H](CCP(=O)(O)CCC(=O)O)C(=O)O` [(3R)-PCEP, 3-amino-carboxy-propyl-2′-carboxy-ethylphosphinic acid, reference compound]?
EC50 (rat mGlu4; [3]): 24.2 ± 7.6 µM; EC50 (mGlu8; read-out: EC50 mGlu8, Table 1, mean ± spread (n)): 58.2 ± 8.8 µM; EC50 (mGlu7; read-out: EC50 mGlu7, Table 1): > 1000 µM

For `N[C@@H](CCP(=O)(O)C(O)c1cc([N+](=O)[O-])cc([N+](=O)[O-])c1)C(=O)O` (stereo partly drawn) [Compound 97, (3S)-3-[(((3-amino-3-carboxy)propyl)(hydroxy)phosphinyl)-hydroxymethyl] 1,5-dinitrobenzene], which EC50 (rat mGlu4; [4]) is on record?
Its EC50 is 0.81 µM.

Which EC50 (mGlu4R [1]) does the source give for `NC(CCP(=O)(O)O)C(=O)O` [L-AP4] here?
The EC50 was 0.32 µM.

For `CC(N)(CCP(=O)(O)O)C(=O)O` (stereo not drawn) [α-methyl analogue], which IC50 (mGlu4R [2]) is on record?
Its IC50 is 100 µM.
